Consider 25 molecules from patent US9187429B2, “Phenyl-tetrahydroisoquinoline derivatives” (Hoffmann-La Roche Inc., priority 2012, dated 2015).

Experiment [1] has as its target human CYP11B1 (Homo sapiens (Human), UniProt P15538). Kind of experiment: G-402 cellular enzyme assay, human CYP11B1 (cortisol release). In kind it is cell-based. As to conditions: G-402 cells expressing human CYP11B1, 1 μM Deoxycortisol. The source says: (§1) The expression plasmids contains the ORF for either human/cyno CYP11B1 or CYP11B2 under the control of a suitable promoter (CMV-promoter) and a suitable resistance marker (neomycin). Using standard techniques the expression plasmid is transfected into G-402 cells and these cells are then selected for expressing the given resistance markers. Individual cell-clones are then selected and assessed for displaying the desired enzymatic activity using 11-Deoxycorticosterone (Cyp 11B2) or 11-Deoxycortisol (Cyp 11B1) as a substrate.
(§2) G-402 cells expressing CYP11 constructs were established as described above and maintained in McCoy's 5a Medium Modified, ATCC Catalog No. 30-2007 containing 10% FCS and 400 μg/ml G418 (Geneticin) at 37° C. under an atmosphere of 5% CO2/95% air. […] For assaying enzymatic activity, cells were plated onto 96 well plates and incubated for 16 h. An aliquot of the supernatant is then transferred and analyzed for the concentration of the expected product (Aldosterone for CYP11B2; Cortisol for CYP11B1). The concentrations of these steroids can be determined using HTRF assays from CisBio analyzing either Aldosterone or Cortisol.
(§3) Inhibition of the release of produced steroids can be used as a measure of the respective enzyme inhibition by test compounds added during the cellular enzyme assay. The dose dependent inhibition of enzymatic activity by a compound is calculated by means of plotting added inhibitor concentrations (x-axes) vs. measured steroid/product level (y-axes). The inhibition is then calculated by fitting the following 4-parameter sigmoidal function (Morgan-Mercer-Flodin (MMF) model) to the raw data points using the least squares method:
(§4) [formula] wherein, A is the maximum y value, B is the EC50 factor determined using XLFit, C is the minimum y value and D is the slope value.
(§5) EC50 values for compounds claimed herein were tested with the G402-based assay system described. Cyp 11B2 enzyme activity was tested in presence of 1 μM Deoxycorticosterone and variable amounts of inhibitors; Cyp 11B1 enzyme activity was tested in presence of 1 μM Deoxycortisol and variable amounts of inhibitors.

In experiment [2] the target is CYP11B2 (Homo sapiens (Human), UniProt P19099). Kind of experiment: G-402 cellular enzyme assay, human CYP11B2 (aldosterone release). It counts as cell-based. As to conditions: G-402 cells expressing human CYP11B2, 1 μM Deoxycorticosterone.
Description: as §1, §2, §3, §4, §5

Counter-ions that a name gives are not always drawn.

Chain of CYP11B2 (P19099 25-503): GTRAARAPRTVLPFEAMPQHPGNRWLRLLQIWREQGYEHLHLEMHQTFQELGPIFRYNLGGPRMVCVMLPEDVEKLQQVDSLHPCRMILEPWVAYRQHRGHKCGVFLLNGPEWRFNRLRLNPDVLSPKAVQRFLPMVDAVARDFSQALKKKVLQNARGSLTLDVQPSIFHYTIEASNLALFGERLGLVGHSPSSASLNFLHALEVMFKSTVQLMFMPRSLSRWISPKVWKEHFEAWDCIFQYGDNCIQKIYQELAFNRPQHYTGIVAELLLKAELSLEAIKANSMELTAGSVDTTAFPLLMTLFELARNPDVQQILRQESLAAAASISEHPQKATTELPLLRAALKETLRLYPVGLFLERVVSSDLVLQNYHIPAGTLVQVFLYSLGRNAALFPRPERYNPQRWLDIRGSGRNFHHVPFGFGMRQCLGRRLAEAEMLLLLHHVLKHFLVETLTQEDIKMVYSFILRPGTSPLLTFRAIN
Chain of human CYP11B1 (P15538 25-503): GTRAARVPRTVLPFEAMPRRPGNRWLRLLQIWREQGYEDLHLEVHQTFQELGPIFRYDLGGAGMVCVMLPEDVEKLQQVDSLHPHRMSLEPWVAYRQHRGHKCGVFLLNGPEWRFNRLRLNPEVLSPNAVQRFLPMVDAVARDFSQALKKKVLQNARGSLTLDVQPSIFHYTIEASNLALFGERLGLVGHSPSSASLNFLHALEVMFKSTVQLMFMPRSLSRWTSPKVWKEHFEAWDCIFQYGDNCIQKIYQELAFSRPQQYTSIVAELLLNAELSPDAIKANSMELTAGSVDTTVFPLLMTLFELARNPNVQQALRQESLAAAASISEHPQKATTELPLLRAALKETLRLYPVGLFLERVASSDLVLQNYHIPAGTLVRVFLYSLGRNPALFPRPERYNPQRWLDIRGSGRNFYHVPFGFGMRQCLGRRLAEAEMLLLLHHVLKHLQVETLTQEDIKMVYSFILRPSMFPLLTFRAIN

For `COC(=O)COC1CCc2c(-c3ccc(C(F)(F)F)cc3)cncc21` (racemic) [Example 98, (rac)-Methyl 2-(4-(4-(trifluoromethyl)phenyl)-6,7-dihydro-5H-cyclopenta[c]pyridin-7-yloxy)acetate], the EC50 turned out to be 0.628 µM in experiment [1] and 0.0196 µM in experiment [2].

For `O=C(O)COC1CCc2c(-c3ccc(C(F)(F)F)cc3)cncc21` (racemic) [Example 99, (rac)-2-(4-(4-(Trifluoromethyl)phenyl)-6,7-dihydro-5H-cyclopenta[c]pyridin-7-yloxy)acetic acid hydrochloride], the EC50 in experiment [1] stood at 1.19 µM; in experiment [2] it was 0.0659 µM.

As for `CNC(=O)COC1CCc2c(-c3ccc(C(F)(F)F)cc3)cncc21` (racemic) [Example 100, (rac)-N-Methyl-2-(4-(4-(trifluoromethyl)phenyl)-6,7-dihydro-5H-cyclopenta[c]pyridin-7-yloxy)acetamide], the EC50 in experiment [1] came out at 0.43 µM; in experiment [2], 0.0129 µM.

For the molecule `CN(C)C(=O)COC1CCc2c(-c3ccc(C(F)(F)F)cc3)cncc21` (racemic) [Example 101, (rac)-N,N-Dimethyl-2-(4-(4-(trifluoromethyl)phenyl)-6,7-dihydro-5H-cyclopenta[c]pyridin-7-yloxy)acetamide], the EC50 in experiment [1] was found to be 1.27 µM; in experiment [2], 0.0269 µM.

Regarding `NC(=O)COC1CCc2c(-c3ccc(C(F)(F)F)cc3)cncc21` (racemic) [Example 102, (rac)-2-(4-(4-(Trifluoromethyl)phenyl)-6,7-dihydro-5H-cyclopenta[c]pyridin-7-yloxy)acetamide], the results for the EC50 in experiment [1] and in experiment [2] were 0.0408 µM and 0.0011 µM, respectively.

Regarding `CC1(COC2CCc3c(-c4ccc(C(F)(F)F)cc4)cncc32)COC1` (racemic) [Example 103, (rac)-7-((3-Methyloxetan-3-yl)methoxy)-4-(4-(trifluoromethyl)phenyl)-6,7-dihydro-5H-cyclopenta[c]pyridine], the EC50 in experiment [1] amounted to 0.0023 µM; in experiment [2], 0.0002 µM.

`OC1CCCc2c(-c3ccc(C(F)(F)F)cc3)cncc21` (racemic) [Example 104, (rac)-4-(4-(Trifluoromethyl)phenyl)-5,6,7,8-tetrahydroisoquinolin-8-ol]: the EC50 in experiment [1] was found to be 0.71 µM; in experiment [2], 0.0146 µM.

`CCC(=O)N[C@@H]1c2cncc(-c3ccc(C(F)(F)F)cc3)c2CC[C@H]1C` (single isomer, unassigned) [Example 67, N-[(7R,8S or 7S,8R)-7-Methyl-4-(4-trifluoromethyl-phenyl)-5,6,7,8-tetrahydro-isoquinolin-8-yl]-propionamide]: the EC50 in experiment [1] was determined as 8.47 µM; in experiment [2] it was 0.764 µM.

For the molecule `CCC(=O)N[C@@H]1c2cncc(-c3ccc(C(F)(F)F)cc3)c2CC[C@@H]1C` (single isomer, unassigned) [Example 68, N-[(7S,8S or 7R,8R)-7-Methyl-4-(4-trifluoromethyl-phenyl)-5,6,7,8-tetrahydro-isoquinolin-8-yl]-propionamide], the EC50 in experiment [1] turned out to be 10.7 µM; in experiment [2] it was 0.658 µM.

Consider `CCC(=O)N[C@H]1c2cncc(-c3ccc(C(F)(F)F)cc3)c2CC[C@@H]1C` (single isomer, unassigned) [Example 69, N-[(7S,8R or 7R,8S)-7-Methyl-4-(4-trifluoromethyl-phenyl)-5,6,7,8-tetrahydro-isoquinolin-8-yl]-propionamide], for which the EC50 in experiment [1] came to 0.742 µM; in experiment [2], 0.011 µM.

Take `CCC(=O)N[C@H]1c2cncc(-c3ccc(C(F)(F)F)cc3)c2CC[C@H]1C` (single isomer, unassigned) [Example 70, N-[(7R,8R or 7S,8S)-7-Methyl-4-(4-trifluoromethyl-phenyl)-5,6,7,8-tetrahydro-isoquinolin-8-yl]-propionamide]: the EC50 came to 3.03 µM in experiment [1] and 0.042 µM in experiment [2].

With `Cc1ccc(C2(O)CCCc3c(-c4ccc(C#N)cc4)cncc32)cc1C` (single isomer, unassigned; (+)) [Example 15, (+)-(S or R)-4-(8-(3,4-Dimethylphenyl)-8-hydroxy-5,6,7,8-tetrahydroisoquinolin-4-yl)benzonitrile], the results for the half-maximal effective concentration (EC50) in experiment [1] and in experiment [2] were 0.021 µM and 0.005 µM, respectively.

In the case of `CCC(=O)NC1CCc2c(-c3ccc(C#N)cc3)cncc21` (single isomer, unassigned; (+)) [Example 19, (+)-(R or S)—N-(4-(4-Cyanophenyl)-6,7-dihydro-5H-cyclopenta[c]pyridin-7-yl)propionamide], the EC50 was determined as 0.174 µM in experiment [1] and 0.012 µM in experiment [2].

Regarding `CCC(=O)NC1CCCc2c(-c3ccc(C(F)(F)F)cc3)cncc21` (single isomer, unassigned; (+)) [Example 23, (+)-(R or S)—N-(4-(4-(Trifluoromethyl)phenyl)-5,6,7,8-tetrahydroisoquinolin-8-yl)propionamide], the figures for the EC50 in experiment [1] and in experiment [2] were 3.69 µM and 0.031 µM, respectively.

Regarding `CCC(=O)NC1CCCc2c(-c3ccc(Cl)cc3)cncc21` (single isomer, unassigned; (+)) [Example 26, (+)-(R or S)—N-(4-(4-Chlorophenyl)-5,6,7,8-tetrahydroisoquinolin-8-yl)propionamide], the results for the 50% effective concentration (EC50) in experiment [1] and in experiment [2] were 0.503 µM and 0.017 µM, respectively.

With `CCC(=O)NC1CCCc2c(-c3ccc(F)c(C)c3)cncc21` (single isomer, unassigned; (+)) [Example 29, (+)-(R or S)—N-(4-(4-fluoro-3-methylphenyl)-5,6,7,8-tetrahydroisoquinolin-8-yl)propionamide], the EC50 in experiment [1] amounted to 0.241 µM; in experiment [2] it was 0.004 µM.

As for `CCC(=O)NC1CCCc2c(-c3ccc(Cl)cc3F)cncc21` (single isomer, unassigned; (+)) [Example 32, (+)-(R or S)—N-(4-(4-Chloro-2-fluorophenyl)-5,6,7,8-tetrahydroisoquinolin-8-yl)propionamide], the EC50 turned out to be 0.617 µM in experiment [1] and 0.019 µM in experiment [2].

As for `CCC(=O)NC1CCCc2c(-c3ccc(C(F)(F)F)cc3F)cncc21` (single isomer, unassigned; (+)) [Example 35, (+)-(R or S)—N-(4-(2-Fluoro-4-(trifluoromethyl)phenyl)-5,6,7,8-tetrahydroisoquinolin-8-yl)propionamide], the EC50 in experiment [1] was 6.68 µM; in experiment [2], 0.071 µM.

Regarding `CCC(=O)NC1CCCc2c(-c3ccc(Cl)c(F)c3)cncc21` (single isomer, unassigned; (+)) [Example 38, (+)-(R or S)—N-(4-(4-Chloro-3-fluorophenyl)-5,6,7,8-tetrahydroisoquinolin-8-yl)propionamide], the results for the EC50 in experiment [1] and in experiment [2] were 0.214 µM and 0.007 µM, respectively.

As to `CCC(=O)NC1CCCc2c(-c3ccc(C(F)(F)F)c(F)c3)cncc21` (single isomer, unassigned; (+)) [Example 41, (+)-(R or S)—N-(4-(3-Fluoro-4-(trifluoromethyl)phenyl)-5,6,7,8-tetrahydroisoquinolin-8-yl)propionamide], the concentration giving a half-maximal response (EC50) in experiment [1] stood at 1.81 µM; in experiment [2] it was 0.016 µM.

In the case of `CCC(=O)NC1CCc2c(-c3ccc(C(F)(F)F)cc3)cncc21` (single isomer, unassigned; (+)) [Example 51, (+)-(R or S)—N-(4-(4-(Trifluoromethyl)phenyl)-6,7-dihydro-5H-cyclopenta[c]pyridin-7-yl)propionamide], the EC50 in experiment [1] was determined as 2.26 µM; in experiment [2], 0.025 µM.

For the molecule `C[C@@H](O)C(=O)NC1CCc2c(-c3ccc(C(F)(F)F)cc3)cncc21` (single isomer, unassigned; (+)) [Example 54, (+)-(R)-2-Hydroxy-N—((R or S)-4-(4-(trifluoromethyl)phenyl)-6,7-dihydro-5H-cyclopenta[c]pyridin-7-yl)propanamide], the EC50 in experiment [1] was determined as 3.17 µM; in experiment [2], 0.089 µM.

Consider `CCC(=O)NC1CCc2c(-c3ccc(Cl)c(F)c3)cncc21` (single isomer, unassigned; (+)) [Example 57, (+)-(R or S)—N-(4-(4-Chloro-3-fluorophenyl)-6,7-dihydro-5H-cyclopenta[c]pyridin-7-yl)propionamide], for which the EC50 in experiment [1] stood at 0.103 µM; in experiment [2] it was 0.007 µM.

For the molecule `CCC(=O)NC1CCc2c(-c3ccc(F)c(C)c3)cncc21` (single isomer, unassigned; (+)) [Example 60, (+)-(R or S)—N-(4-(4-Fluoro-3-methylphenyl)-6,7-dihydro-5H-cyclopenta[c]pyridin-7-yl)propionamide], the EC50 amounted to 0.064 µM in experiment [1] and 0.002 µM in experiment [2].

Turning to `CCC(=O)NC1CCc2c(-c3ccc(C(F)(F)F)cc3F)cncc21` (single isomer, unassigned; (+)) [Example 63, (+)-(R or S)—N-(4-(2-Fluoro-4-(trifluoromethyl)phenyl)-6,7-dihydro-5H-cyclopenta[c]pyridin-7-yl)propionamide], the EC50 in experiment [1] is 1.72 µM; in experiment [2], 0.03 µM.

The EC50 is the midpoint of the concentration-response curve. A low value points to greater potency.
